Results: ChEMBL document CHEMBL1201862, “PubChem BioAssay data set” (2004)
Active and inactive are the calls of the source.

Experiments:
[1] = target: T1, Small ubiquitin-related modifier 1 (Homo sapiens, UniProt P63165); test: inhibitors of SUMO1 partner interactions, dose response, biochemical, FRET (AID 624383); format: functional; conditions: read-out: IC50_Mean
[2] = target: T1, Small ubiquitin-related modifier 1; test: inhibitors of SUMO1 peptide binding, dose response, biochemical, fluorescence polarization, uHTS hits (AID 624382); format: functional; conditions: read-out: IC50_Mean
[3] = target: Glycogen synthase kinase-3 beta (Homo sapiens, UniProt P49841); format: functional;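 note: value comes from a broad kinome profiling panel, with GSK3B as the panel member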
Sequence of Glycogen synthase kinase-3 beta (P49841 whole entry): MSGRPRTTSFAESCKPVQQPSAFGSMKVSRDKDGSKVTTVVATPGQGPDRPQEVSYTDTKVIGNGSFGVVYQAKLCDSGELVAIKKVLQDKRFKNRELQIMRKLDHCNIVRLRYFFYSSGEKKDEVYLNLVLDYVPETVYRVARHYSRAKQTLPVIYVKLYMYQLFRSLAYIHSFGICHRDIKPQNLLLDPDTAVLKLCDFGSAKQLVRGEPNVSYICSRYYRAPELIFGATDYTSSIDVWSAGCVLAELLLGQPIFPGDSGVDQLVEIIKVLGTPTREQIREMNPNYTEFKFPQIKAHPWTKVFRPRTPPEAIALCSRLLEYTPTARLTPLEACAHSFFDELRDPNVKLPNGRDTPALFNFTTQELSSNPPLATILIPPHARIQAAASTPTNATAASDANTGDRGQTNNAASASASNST

[4] = target: Mitogen-activated protein kinase kinase kinase kinase 4 (Homo sapiens, UniProt O95819); format: functional
Sequence of Mitogen-activated protein kinase kinase kinase kinase 4 (O95819 whole entry): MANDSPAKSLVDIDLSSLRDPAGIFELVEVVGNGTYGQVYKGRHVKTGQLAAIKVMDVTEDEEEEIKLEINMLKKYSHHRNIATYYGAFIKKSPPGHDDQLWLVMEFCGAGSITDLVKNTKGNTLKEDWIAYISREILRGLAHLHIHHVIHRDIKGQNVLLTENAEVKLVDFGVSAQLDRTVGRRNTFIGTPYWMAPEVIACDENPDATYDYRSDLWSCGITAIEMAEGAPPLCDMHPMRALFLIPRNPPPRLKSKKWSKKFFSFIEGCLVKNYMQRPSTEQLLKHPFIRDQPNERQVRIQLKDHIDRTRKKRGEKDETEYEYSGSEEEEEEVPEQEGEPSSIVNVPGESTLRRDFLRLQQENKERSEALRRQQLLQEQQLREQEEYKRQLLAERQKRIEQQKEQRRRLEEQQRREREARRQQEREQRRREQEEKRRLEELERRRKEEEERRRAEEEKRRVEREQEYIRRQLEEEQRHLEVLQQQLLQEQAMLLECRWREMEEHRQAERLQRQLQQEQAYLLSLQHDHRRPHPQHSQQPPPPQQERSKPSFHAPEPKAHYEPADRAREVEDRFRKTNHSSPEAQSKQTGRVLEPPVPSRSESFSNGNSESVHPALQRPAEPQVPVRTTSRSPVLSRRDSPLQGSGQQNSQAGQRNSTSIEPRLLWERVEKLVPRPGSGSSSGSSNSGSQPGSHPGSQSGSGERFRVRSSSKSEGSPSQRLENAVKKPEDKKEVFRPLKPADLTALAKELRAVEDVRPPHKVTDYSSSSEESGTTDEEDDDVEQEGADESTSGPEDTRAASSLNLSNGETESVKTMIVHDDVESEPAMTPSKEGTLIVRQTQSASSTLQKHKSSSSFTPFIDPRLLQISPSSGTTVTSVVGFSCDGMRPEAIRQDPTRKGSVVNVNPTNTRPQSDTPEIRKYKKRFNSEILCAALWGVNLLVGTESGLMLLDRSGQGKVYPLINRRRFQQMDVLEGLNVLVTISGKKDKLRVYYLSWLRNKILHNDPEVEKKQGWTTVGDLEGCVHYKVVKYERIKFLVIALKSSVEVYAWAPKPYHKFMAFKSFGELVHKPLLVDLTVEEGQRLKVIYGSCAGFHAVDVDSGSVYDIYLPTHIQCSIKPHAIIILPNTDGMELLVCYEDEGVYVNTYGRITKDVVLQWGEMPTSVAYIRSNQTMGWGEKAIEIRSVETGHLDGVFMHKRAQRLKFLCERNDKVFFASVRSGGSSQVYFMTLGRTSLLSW

[5] = target: Cell division cycle 7-related protein kinase (Homo sapiens, UniProt O00311); format: functional;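 note: value obtained from a kinome-wide kinase panel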
[6] = target: Interleukin-1 receptor-associated kinase 4 (Homo sapiens, UniProt Q9NWZ3); format: functional
Sequence of Interleukin-1 receptor-associated kinase 4 (Q9NWZ3 whole entry): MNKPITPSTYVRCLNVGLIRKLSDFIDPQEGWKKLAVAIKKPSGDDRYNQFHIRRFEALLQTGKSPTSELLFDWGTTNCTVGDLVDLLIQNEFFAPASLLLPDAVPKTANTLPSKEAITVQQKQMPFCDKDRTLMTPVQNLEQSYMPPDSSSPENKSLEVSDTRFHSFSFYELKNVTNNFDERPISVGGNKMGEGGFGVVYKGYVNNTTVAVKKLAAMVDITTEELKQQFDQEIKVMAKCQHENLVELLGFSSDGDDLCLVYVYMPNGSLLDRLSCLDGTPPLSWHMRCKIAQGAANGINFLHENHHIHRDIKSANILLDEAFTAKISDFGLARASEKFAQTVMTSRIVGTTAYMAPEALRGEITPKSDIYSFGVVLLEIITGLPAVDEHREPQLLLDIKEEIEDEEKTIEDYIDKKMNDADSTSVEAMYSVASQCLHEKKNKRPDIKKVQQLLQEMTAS

[7] = target: MAP kinase-interacting serine/threonine-protein kinase 2 (Homo sapiens, UniProt Q9HBH9); format: functional
Sequence of MAP kinase-interacting serine/threonine-protein kinase 2 (Q9HBH9 whole entry): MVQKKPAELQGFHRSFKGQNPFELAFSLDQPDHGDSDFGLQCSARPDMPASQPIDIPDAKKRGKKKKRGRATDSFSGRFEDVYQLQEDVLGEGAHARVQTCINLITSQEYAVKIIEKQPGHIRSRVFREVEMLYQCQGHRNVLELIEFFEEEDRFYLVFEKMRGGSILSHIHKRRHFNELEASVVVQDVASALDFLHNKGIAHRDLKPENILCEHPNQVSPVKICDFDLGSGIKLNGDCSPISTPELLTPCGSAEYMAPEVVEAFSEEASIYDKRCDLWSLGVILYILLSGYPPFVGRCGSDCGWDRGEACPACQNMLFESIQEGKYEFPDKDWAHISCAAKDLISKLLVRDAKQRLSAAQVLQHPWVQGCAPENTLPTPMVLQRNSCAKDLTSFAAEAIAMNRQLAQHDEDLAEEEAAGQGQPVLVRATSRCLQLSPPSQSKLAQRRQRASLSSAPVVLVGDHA

[8] = target: cAMP-dependent protein kinase catalytic subunit alpha (Homo sapiens, UniProt P17612); format: functional
[9] = target: Serine/threonine-protein kinase pim-1 (Homo sapiens, UniProt P11309); format: functional
Sequence of Serine/threonine-protein kinase pim-1 (P11309 whole entry): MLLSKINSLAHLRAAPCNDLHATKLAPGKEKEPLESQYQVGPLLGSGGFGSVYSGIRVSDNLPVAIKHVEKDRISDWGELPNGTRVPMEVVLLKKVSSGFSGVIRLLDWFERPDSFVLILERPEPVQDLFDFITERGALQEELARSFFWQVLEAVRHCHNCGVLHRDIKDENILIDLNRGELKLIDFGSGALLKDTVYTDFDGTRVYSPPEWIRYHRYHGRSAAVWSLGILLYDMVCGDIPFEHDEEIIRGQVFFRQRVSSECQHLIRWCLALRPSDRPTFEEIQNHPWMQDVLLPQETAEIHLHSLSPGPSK

[10] = target: T2, Apoptotic protease-activating factor 1 (Homo sapiens, UniProt O14727); test: SAR analysis of small molecule Activators of Apaf-1 in a Fluorescent assay.; format: functional; conditions: read-out: EC50_Mean;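 note: caspase-3 cleavage of fluorogenic Rh110 DEVD substrate downstream of apoptosome activation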
T2 sequence (O14727 whole entry): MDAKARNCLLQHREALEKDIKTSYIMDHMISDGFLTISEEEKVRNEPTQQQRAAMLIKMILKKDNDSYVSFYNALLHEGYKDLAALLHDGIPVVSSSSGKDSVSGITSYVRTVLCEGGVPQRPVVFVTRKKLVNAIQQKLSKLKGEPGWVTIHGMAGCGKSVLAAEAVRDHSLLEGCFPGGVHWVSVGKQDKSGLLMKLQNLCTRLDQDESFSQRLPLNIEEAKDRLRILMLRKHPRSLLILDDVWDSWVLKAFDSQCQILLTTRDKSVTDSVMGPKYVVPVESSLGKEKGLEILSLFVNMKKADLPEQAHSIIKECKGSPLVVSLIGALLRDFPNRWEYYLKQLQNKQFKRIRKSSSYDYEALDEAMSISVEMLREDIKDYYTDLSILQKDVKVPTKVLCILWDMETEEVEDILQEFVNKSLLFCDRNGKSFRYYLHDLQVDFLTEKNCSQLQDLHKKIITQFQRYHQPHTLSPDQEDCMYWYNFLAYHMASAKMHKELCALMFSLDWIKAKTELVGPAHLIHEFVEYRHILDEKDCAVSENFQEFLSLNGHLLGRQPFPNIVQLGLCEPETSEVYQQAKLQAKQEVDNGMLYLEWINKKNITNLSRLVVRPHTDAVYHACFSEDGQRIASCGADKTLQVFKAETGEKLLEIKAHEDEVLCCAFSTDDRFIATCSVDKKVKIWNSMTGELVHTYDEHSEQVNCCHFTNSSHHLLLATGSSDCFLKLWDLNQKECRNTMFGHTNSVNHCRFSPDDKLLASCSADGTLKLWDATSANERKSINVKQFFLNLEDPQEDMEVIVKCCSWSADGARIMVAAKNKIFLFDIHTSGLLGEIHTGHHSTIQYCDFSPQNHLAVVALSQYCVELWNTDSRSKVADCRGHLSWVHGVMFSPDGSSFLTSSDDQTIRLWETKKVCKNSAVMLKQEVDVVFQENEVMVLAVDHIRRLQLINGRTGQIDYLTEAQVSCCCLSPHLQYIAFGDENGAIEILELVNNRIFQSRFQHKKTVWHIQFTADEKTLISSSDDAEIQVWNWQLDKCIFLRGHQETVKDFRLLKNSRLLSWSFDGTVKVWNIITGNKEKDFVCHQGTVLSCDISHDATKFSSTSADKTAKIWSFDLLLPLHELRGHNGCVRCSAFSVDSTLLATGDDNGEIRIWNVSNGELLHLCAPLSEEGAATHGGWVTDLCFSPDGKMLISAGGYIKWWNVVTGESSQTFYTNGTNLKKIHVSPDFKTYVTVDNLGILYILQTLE

[11] = target: Melanin-concentrating hormone receptor 1 (Homo sapiens, UniProt Q99705); test: Late-stage fluorescence-based counterscreen for antagonists of the G-protein coupled receptor 7 (GPR7): cell-based dose response assay to identify antagonists of the melanin-concentrating hormone receptor 1 (MCHR1) Set 5.; format: functional
Sequence of Melanin-concentrating hormone receptor 1 (Q99705 whole entry): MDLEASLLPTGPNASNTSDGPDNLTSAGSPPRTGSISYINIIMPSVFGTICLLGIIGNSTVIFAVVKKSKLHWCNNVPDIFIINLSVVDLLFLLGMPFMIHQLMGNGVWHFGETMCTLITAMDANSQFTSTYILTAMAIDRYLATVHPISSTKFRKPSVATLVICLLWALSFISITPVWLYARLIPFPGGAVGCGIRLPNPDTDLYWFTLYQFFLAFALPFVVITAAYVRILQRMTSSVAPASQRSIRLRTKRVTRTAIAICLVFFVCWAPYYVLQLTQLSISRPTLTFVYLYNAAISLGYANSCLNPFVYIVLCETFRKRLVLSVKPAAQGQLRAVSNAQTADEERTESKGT

[12] = target: Neuropeptides B/W receptor type 1 (Homo sapiens, UniProt P48145); test: GPR7 antagonist potency, late-stage follow-up, cell-based, fluorescence, dose response, set 5 (AID 588566); format: functional
Sequence of Neuropeptides B/W receptor type 1 (P48145 whole entry): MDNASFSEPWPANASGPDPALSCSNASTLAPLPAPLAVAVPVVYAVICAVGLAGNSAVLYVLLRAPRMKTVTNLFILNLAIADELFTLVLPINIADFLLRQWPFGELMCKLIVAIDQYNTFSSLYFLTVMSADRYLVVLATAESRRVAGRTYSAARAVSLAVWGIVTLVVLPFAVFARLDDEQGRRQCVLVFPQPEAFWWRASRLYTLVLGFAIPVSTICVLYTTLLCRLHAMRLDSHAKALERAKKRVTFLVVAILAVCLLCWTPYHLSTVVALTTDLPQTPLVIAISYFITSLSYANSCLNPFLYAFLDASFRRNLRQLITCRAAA

[13] = StAR promoter reporter inhibition counter-screen, dose response, counter-screen for LRH-1 inverse agonist project, cell-based, luminescence, luciferase reporter (AID 651969); format: functional
[14] = target: Steroidogenic factor 1 (Homo sapiens, UniProt Q13285); test: Counterscreen for inverse agonists of the liver receptor homolog-1 (LRH-1; NR5A2): Luminescence-based cell-based high throughput dose response assay to identify inverse agonists of the Steroidogenic Factor 1 Nuclear Receptor (SF1; NR5A1).; format: functional
Sequence of Steroidogenic factor 1 (Q13285 whole entry): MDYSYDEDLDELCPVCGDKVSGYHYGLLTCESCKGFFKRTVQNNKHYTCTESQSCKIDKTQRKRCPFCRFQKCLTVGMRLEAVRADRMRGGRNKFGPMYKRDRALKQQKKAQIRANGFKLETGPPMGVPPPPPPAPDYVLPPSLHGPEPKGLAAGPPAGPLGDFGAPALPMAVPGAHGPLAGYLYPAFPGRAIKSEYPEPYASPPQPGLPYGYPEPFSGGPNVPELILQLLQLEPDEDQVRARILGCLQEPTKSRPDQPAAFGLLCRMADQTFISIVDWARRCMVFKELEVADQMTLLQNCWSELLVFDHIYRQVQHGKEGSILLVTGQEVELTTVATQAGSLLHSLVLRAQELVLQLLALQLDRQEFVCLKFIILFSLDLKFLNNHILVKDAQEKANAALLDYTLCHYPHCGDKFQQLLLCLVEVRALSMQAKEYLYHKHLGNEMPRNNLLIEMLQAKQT

[15] = target: Nuclear receptor subfamily 5 group A member 2 (Homo sapiens, UniProt O00482); format: functional, cell-based;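 note: HEK293T cells transfected with LRH-1 and a StAR promoter luciferase reporter; potency for inhibitors that lower LRH-1 driven reporter light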
[16] = target: ADP-ribosylation factor GTPase-activating protein 1 (Rattus norvegicus, UniProt Q62848); test: Fluorescence polarization-based biochemical high throughput dose response screening assay to identify inhibitors of ADP-ribosylation factor GTPase activating protein 1 (ARFGAP1).; format: functional
[17] = target: Arf-GAP with SH3 domain, ANK repeat and PH domain-containing protein 1 (Homo sapiens, UniProt Q9ULH1); format: functional;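 note: biochemical fluorescence polarization dose–response screen measuring inhibition of ASAP1; ASAP1 GAP domain stimulating GTP hydrolysis by truncated human ARF1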
[18] = target: T3, DNA repair protein RAD52 homolog (Homo sapiens, UniProt P43351); format: functional, biochemical
T3 sequence (P43351 whole entry): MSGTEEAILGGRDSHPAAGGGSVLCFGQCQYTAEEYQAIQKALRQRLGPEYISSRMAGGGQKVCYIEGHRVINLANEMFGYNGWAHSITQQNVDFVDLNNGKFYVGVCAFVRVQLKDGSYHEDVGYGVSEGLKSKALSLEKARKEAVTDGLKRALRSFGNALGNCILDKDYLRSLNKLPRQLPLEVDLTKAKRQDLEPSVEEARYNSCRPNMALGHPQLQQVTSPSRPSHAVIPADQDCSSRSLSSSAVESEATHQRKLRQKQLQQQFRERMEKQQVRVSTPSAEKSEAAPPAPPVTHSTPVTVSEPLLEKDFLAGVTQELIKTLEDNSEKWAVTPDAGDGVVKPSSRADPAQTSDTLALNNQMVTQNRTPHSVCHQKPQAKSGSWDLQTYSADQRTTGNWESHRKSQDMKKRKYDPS

[19] = target: DNA repair and recombination protein RAD54-like (Homo sapiens, UniProt Q92698); test: inhibitors of human RAD54 branch migration, confirmation, biochemical, fluorescence, cherry-picked samples, dose series (AID 651657); format: functional
Sequence of DNA repair and recombination protein RAD54-like (Q92698 whole entry): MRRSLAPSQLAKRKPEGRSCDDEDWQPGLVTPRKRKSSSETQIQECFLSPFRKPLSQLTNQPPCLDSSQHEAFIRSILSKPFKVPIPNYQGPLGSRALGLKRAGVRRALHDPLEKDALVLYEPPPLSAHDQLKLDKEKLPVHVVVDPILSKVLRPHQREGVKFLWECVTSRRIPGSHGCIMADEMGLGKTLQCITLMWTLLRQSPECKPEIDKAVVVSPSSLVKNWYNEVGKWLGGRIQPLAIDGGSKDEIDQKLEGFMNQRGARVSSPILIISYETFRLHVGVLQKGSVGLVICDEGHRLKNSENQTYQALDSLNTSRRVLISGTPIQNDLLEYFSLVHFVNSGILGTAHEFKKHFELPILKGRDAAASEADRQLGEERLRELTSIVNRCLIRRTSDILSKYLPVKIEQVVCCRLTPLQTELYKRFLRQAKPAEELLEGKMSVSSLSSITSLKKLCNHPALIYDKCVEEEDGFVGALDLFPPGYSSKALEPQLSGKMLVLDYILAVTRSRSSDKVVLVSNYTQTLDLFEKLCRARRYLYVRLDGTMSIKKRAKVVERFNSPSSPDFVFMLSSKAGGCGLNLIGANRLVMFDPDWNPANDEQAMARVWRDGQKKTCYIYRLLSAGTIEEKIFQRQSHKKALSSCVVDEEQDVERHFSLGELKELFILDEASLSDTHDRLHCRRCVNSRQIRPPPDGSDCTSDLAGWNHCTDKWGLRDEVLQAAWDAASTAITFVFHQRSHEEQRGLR

T1 sequence (P63165 whole entry): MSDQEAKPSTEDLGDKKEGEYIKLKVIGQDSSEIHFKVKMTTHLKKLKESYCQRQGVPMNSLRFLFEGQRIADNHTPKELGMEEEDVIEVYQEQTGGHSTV

For `O=C(NCc1ccccn1)c1ccc2c(=O)n3nc(Nc4ccccc4)sc3nc2c1`, the IC50 [1] was 8.94 µM (active) and the IC50 [2] was > 66.6 µM (inactive).

With `CCCCNc1cc(-c2c[nH]c3ncccc23)ncn1` the Ki [3] was 0.0501 µM (active), the Ki [4] was 0.0158 µM (active) and the Ki [5] was 0.00631 µM (active). For the same molecule, the Ki [6] was 1 µM (active), the Ki [7] was 0.0631 µM (active) and the Ki [8] was 1 µM (active). The Ki [9] was 0.158 µM (active).

In the case of `CO[C@@H]1CS(=O)(=O)C2C(c3ccc(F)cc3)=NOC21` (some centres undefined), the EC50 [10] was > 100 µM (inactive).

In the case of `COc1ccc(Oc2c(Cl)cnn(CC(=O)N(C3CCCCC3)C3CCCCC3)c2=O)cc1`, the IC50 [11] was > 20 µM (inactive) and the IC50 [12] was 15.7 µM (inactive).

For `COc1ccc(CCNC(=O)CSc2nc3nc(O)cc(O)c3s2)cc1`, the IC50 [13] was 35.9 µM (inactive), the IC50 [14] was 6.9 µM (active) and the IC50 [15] was 97.8 µM (inactive).

With `CN(Cc1ccccc1F)C(=O)CN1c2cccc3cccc(c23)S1(=O)=O` the IC50 [16] was 47.1 µM (inactive) and the IC50 [17] was 41 µM (inactive).

For `CCN(CC)CCN=C(S)Nc1ccc2nc(N3CCN(C)CC3)cc(C)c2c1`, the AC50 [18] was 5.01 µM (active) and the AC50 [19] was 17.2 µM (active).
